Test results: EP0953357A1, “NEPHROTROPIC DRUGS” (Drug Delivery System Institute, Ltd., priority 1997, dated 1998)
Like-named read-outs stand apart in the source and are kept apart here.

Tests used:
[1] = Distribution of sugar-modified AVP in organs (Test 1); type: in vivo, male SD rats; conditions: rats, i.v. 1 nmol/kg; for renal selectivity: 5 min after administration, concentration in organs and organ clearance as index (Figs. 1 and 2)
Method: (§1) The organ clearance was determined by the following equation.
The organ clearance under the above experimental conditions is considered as a measure of the speed at which the compound is incorporated into the organs. The kidney is an organ which functions to perform glomerular filtration for the production of urine. The renal clearance of low-molecular weight compounds, which are likely to undergo glomerular filtration, is generally larger than the clearance for other organs. Further, under the above experimental conditions, it was estimated from the results on ^14C-labeled inulin that the incorporation of about 0.6 ml/min/g was carried out by glomerular filtration. Larger values indicate the incorporation of drugs into the kidney through blood vessels in addition to the glomerular filtration.

[2] = Renal selectivity (organ distribution) of thioglucoside-modified products (Test 6)
Method: as §1
Organ distribution was studied on Glc-S-C8 and, in addition, thioglucoside modification products of AVP, tryptamine, NBD as a fluorescent dye, doxorubicin as an anticancer agent and the like. Glc-S-C8 (the labeled product was prepared by catalytic exchange with ^3H gas; the specific activity 40.7 GBq/mmol), AVP derivatives, and tryptamine derivatives were converted to ^3H-labeled product and then studied on organ selectivity in the same manner as in Test 1. For the NBD derivatives, an experiment on distribution was carried out under conditions of dose 10 nmol/kg and 3 min. The vital sample was deproteinized with acetonitrile, subjected to separation by reversed phase liquid chromatography, and then quantitatively determined by fluorescence detection. DXR and derivatives thereof were administered at a dose of 50 nmol/kg, and, 3 min after the administration, the distribution was detected in the same manner as used for the NBD derivatives.

[3] = Autoradiography of sugar-modified AVPs in the kidney (Test 2); type: in vivo; conditions: rats, 5 min after administration, compared with Gal-C8-O-AVP and AVP
Method: Sugar-modified AVPs were administered to rats. Five min after the administration, accumulation sites in the kidney were examined by autoradiography.

[4] = rat, in vivo
[5] = Pharmacokinetic test of rats (Glc-S-C5-Ala-DEX) (Test 10 (1)); type: in vivo; conditions: male, rat, iv, Group B, i.v. 100 nmol/kg, n = 3, average ± SD
Source text: For both the groups, the dose was 100 nmol/kg.
Plasma was fractionated from the collected blood according to the conventional method. Further, the kidney and the liver were extracted. The plasma was deprotenized, and the organs were homogenized and deprotenized, followed by separation by reversed phase liquid chromatography. Thereafter, Glc-S-C5-Ala-DEX and dexamethasone were detected and quantitatively determined by UV detector.

[6] = Renal selectivity of modified anti-inflammatory steroid, part 1: total radioactivity in organs (Test 7); conditions: rats, i.v. 10 nmol/kg, 5 min
[7] = rats, ^3H-labeled product, same manner as Test 1 (i.v. 1 nmol/kg, 5 min)

Structure (SMILES): N=C(N)NCCC[C@H](NC(=O)[C@@H]1CCCN1C(=O)[C@@H]1CSSC[C@H](NC(=O)CCCCCCCCO[C@H]2O[C@H](CO)[C@@H](O)[C@H](O)[C@@H]2O)C(=O)N[C@@H](Cc2ccc(O)cc2)C(=O)N[C@@H](Cc2ccccc2)C(=O)N[C@@H](CCC(N)=O)C(=O)N[C@@H](CC(N)=O)C(=O)N1)C(=O)NCC(N)=O [Man(α)-O-C8-AVP]
- renal selectivity [1]: the renal selectivity was the same as that for AVP

Structure (SMILES): COc1cccc2c1C(=O)c1c(O)c3c(c(O)c1C2=O)C[C@@](O)(C(=O)COC(=O)CCCCCCCCS[C@@H]1O[C@H](CO)[C@@H](O)[C@H](O)[C@H]1O)C[C@@H]3O[C@H]1C[C@H](N)[C@H](O)[C@H](C)O1 [Glc-S-C8-COO-DXR, 14-[9-(1-thio-β-D-glucopyranosyl)nonanoyl]doxorubicin]
- formation of free DXR in plasma and kidney ([2]; rat, in vivo): could be confirmed

Structure (SMILES): N=C(N)NCCC[C@H](NC(=O)[C@@H]1CCCN1C(=O)[C@@H]1CSSC[C@H](NC(=O)CCCCCCCCO[C@@H]2O[C@H](CO)[C@@H](O)[C@H](O)[C@H]2O)C(=O)N[C@@H](Cc2ccc(O)cc2)C(=O)N[C@@H](Cc2ccccc2)C(=O)N[C@@H](CCC(N)=O)C(=O)N[C@@H](CC(N)=O)C(=O)N1)C(=O)NCC(N)=O [Glc-O-C8-AVP]
- Renal clearance ([1]; 5 min, Fig. 2): 2.43 mL/min/g
- renal selectivity [1]: high renal selectivity
- concentration in cortical part and in the outer layer of the outer band in the medulla [3]: clearly higher
- concentration in the medulla [3]: lower

Structure (SMILES): N=C(N)NCCC[C@H](NC(=O)[C@@H]1CCCN1C(=O)[C@@H]1CSSC[C@H](NC(=O)CCCCCCCCO[C@H]2C[C@@H](O)[C@H](O)[C@@H](CO)O2)C(=O)N[C@@H](Cc2ccc(O)cc2)C(=O)N[C@@H](Cc2ccccc2)C(=O)N[C@@H](CCC(N)=O)C(=O)N[C@@H](CC(N)=O)C(=O)N1)C(=O)NCC(N)=O [2dGlc-O-C8-AVP]
- renal selectivity [1]: high renal selectivity

Structure (SMILES): N=C(N)NCCC[C@H](NC(=O)[C@@H]1CCCN1C(=O)[C@@H]1CSSC[C@H](NC(=O)CCCCCCCCO[C@@H]2O[C@H](CO)[C@@H](O)[C@H](O)[C@@H]2O)C(=O)N[C@@H](Cc2ccc(O)cc2)C(=O)N[C@@H](Cc2ccccc2)C(=O)N[C@@H](CCC(N)=O)C(=O)N[C@@H](CC(N)=O)C(=O)N1)C(=O)NCC(N)=O [Man-O-C8-AVP]
- renal selectivity [1]: high renal selectivity

Structure (SMILES): N=C(N)NCCC[C@H](NC(=O)[C@@H]1CCCN1C(=O)[C@@H]1CSSC[C@H](NC(=O)CCCCCCCCO[C@@H]2O[C@H](CO)[C@H](O)[C@H](O)[C@H]2O)C(=O)N[C@@H](Cc2ccc(O)cc2)C(=O)N[C@@H](Cc2ccccc2)C(=O)N[C@@H](CCC(N)=O)C(=O)N[C@@H](CC(N)=O)C(=O)N1)C(=O)NCC(N)=O [Gal-O-C8-AVP]
- renal selectivity [1]: the renal selectivity was the same as that for AVP

Structure (SMILES): NCCc1c[nH]c2ccccc12 [Tryptamine]
- Conc. in kidney [2, 7]: 3.5±0.3 % of dose/g
- Renal clearance [2, 7]: 0.63 ± 0.07 mL/min/g

Structure (SMILES): COc1cccc2c1C(=O)c1c(O)c3c(c(O)c1C2=O)C[C@@](O)(C(=O)CO)C[C@@H]3O[C@H]1C[C@H](N)[C@H](O)[C@H](C)O1 [DXR, doxorubicin]
- Renal clearance ([2]; rats, DXR and derivatives: dose 50 nmol/kg, 3 min after administration): 0.54 ± 0.10 mL/min/g

Structure (SMILES): CC[C@H](C)[C@@H]1NC(=O)[C@H](Cc2ccc(O)cc2)NC(=O)[C@@H](NC(=O)CCCCCCCCO[C@@H]2O[C@H](CO)[C@@H](O)[C@H](O)[C@H]2O)CSSC[C@@H](C(=O)N2CCC[C@H]2C(=O)N[C@@H](CC(C)C)C(=O)NCC(N)=O)NC(=O)[C@H](CC(N)=O)NC(=O)[C@H](CCC(N)=O)NC1=O [Glc-O-C8-Oxy]
- Hepatic clearance [4]: 0.08 ± 0.00 mL/min/g
- Renal clearance [4]: 1.05 ± 0.05 mL/min/g

Structure (SMILES): C[C@@H]1C[C@H]2[C@@H]3CCC4=CC(=O)C=C[C@]4(C)[C@@]3(F)[C@@H](O)C[C@]2(C)[C@@]1(O)C(=O)CO [dexamethasone]
- concentration at 5 min ([5]; kidney, read-out: Concentration of dexamethasone: Kidney): 203 ± 39.3 nM
- concentration at 5 min ([5]; liver, read-out: Concentration of dexamethasone: Liver): 930 ± 119 nM
- concentration at 5 min ([5]; plasma, read-out: Concentration of dexamethasone: Plasma): 116 ± 13.6 nM
- Total conc. of dexamethasone in organ: Adrenal [6]: 24.65±0.95 pmol/g tissue
- Total conc. of dexamethasone in organ: Blood [6]: 7.61±0.49 pmol/g tissue
- Total conc. of dexamethasone in organ: Fat [6]: 2.74±1.12 pmol/g tissue
- Total conc. of dexamethasone in organ: Heart [6]: 14.86±1.05 pmol/g tissue
- Total conc. of dexamethasone in organ: Kidney [6]: 22.36±0.80 pmol/g tissue
- Total conc. of dexamethasone in organ: Liver [6]: 65.90±12.61 pmol/g tissue
- Total conc. of dexamethasone in organ: Lung [6]: 16.49±1.57 pmol/g tissue
- Total conc. of dexamethasone in organ: Spleen [6]: 11.04±0.25 pmol/g tissue

Structure (SMILES): CC[C@H](C)[C@@H]1NC(=O)[C@H](Cc2ccc(O)cc2)NC(=O)[C@@H](NC(=O)CCCCCCCCO[C@@H]2O[C@H](CO)[C@@H](O)[C@H](O)[C@@H]2O)CSSC[C@@H](C(=O)N2CCC[C@H]2C(=O)N[C@@H](CC(C)C)C(=O)NCC(N)=O)NC(=O)[C@H](CC(N)=O)NC(=O)[C@H](CCC(N)=O)NC1=O [Man-O-C8-Oxy]
- Hepatic clearance [4]: 0.14 ± 0.02 mL/min/g
- Renal clearance [4]: 3.59 ± 0.17 mL/min/g
